1 substance from patent publication US20240197712A1, “TGF-BETA INHIBITION FOR IMMUNODEFICIENCY VIRUS REACTIVATION FROM LATENCY, ENHANCEMENT OF IMMUNODEFICIENCY VIRUS-SPECIFIC RESPONSES AND IMMUNODEFICIENCY VIRUS CURE” (Northwestern University, priority 2022, published 2024) can be followed below.

The subject of one test is ACH-2 cells. The test can be described thus: PMA-induced HIV reactivation in ACH-2 cells, intracellular p24 staining. The test is classed as cell-based. The protocol: ACH2 cells and U1 cells were obtained through the NIH HIV Reagent Program, Division of AIDS, NIAID, NIH (contributed by Dr. Thomas Folks). […] In the HIV latency reactivation conditions, PMA (Phorbol 12-myristate 13-acetate, SigmaAldrich) was added at 100 ng/ml together with galunisertib or TGF-β1. After 18 hrs, cells were stained intracellularly for p24 using the KC57 antibody (NIH HIV Reagent Program) as previously described (74).

A further test relates to primary CD4+ T cells. The test can be described thus: Primary CD4+ T cell model of HIV-1 latency, p24 ICS. The test is classed as cell-based, human. The settings on record: primary CD4+ T cells infected with HIV ADA; PMA 100 ng/ml; TGF-β1 10 ng/ml or galunisertib 1 μM. The procedure: Next, the impact of TGF-β1 on a primary model of HIV-1 latency was tested using freshly isolated CD4+ T cells. The experiment was based on the model by Berkhout and colleagues (50) with some modifications (FIG. 1F). Specifically, CD4+ T cells were isolated from HIV-1 uninfected, de-identified donor PBMC and activated them with PHA and IL-2 for 3 days before infection via spinoculation with HIV ADA. After extensive wash of the viral inoculum, cells were cultured 48 hrs in presence of T20 (enfuvirtide) to avoid viral spread beyond the cells with initial integrations. The overall initial infection achieved was very low despite the spinoculation step (˜0.1% of p24-gag+ cells, FIGS. 3A-3B).
Blood from de-identified donors was obtained from the New York Blood Bank and used as source of CD4 T cells for the primary model of HIV latency in vitro. Total CD4+ T cells were isolated with the CD4 T cells isolation kit (Miltenyi) and activated with 5 μg/ml of PHA and 50 U/ml of IL-2 for 3 days. After washing out the PHA, cells were infected with 200TCID50 of HIV-ADA (NIH HIV Reagent Program) in 12 or 24 wells/plates and spinoculated at 1200 g for 2 hrs at 25° C. After additional 3 hrs of incubation at 37° C., viral inoculum was washed and cells plated in presence of T20 (Enfurtivide acetate salt, 1 μM NIH AIDS reagent program). […]

In test [1] the test system is U1 cells. Briefly: PMA-induced HIV reactivation in U1 cells, intracellular p24 staining. The test is classed as cell-based. The settings on record: U1 cells. The procedure: ACH2 cells and U1 cells were obtained through the NIH HIV Reagent Program, Division of AIDS, NIAID, NIH (contributed by Dr. Thomas Folks). Cells ([…]) were cultured in triplicates in RPMI with 10% FBS and Pen/Strep in presence of TGF-β1 (10 ng/ml R&D systems), TGF-β1 and galunisertib (1 μM MedChemExpress), galunisertib alone or mock treated. In the HIV latency reactivation conditions, PMA (Phorbol 12-myristate 13-acetate, SigmaAldrich) was added at 100 ng/ml together with galunisertib or TGF-β1. After 18 hrs, cells were stained intracellularly for p24 using the KC57 antibody (NIH HIV Reagent Program) as previously described (74).

A further test deals with moDCs. The test can be described thus: moDC phenotyping by flow cytometry. The test is classed as cell-based, human. The conditions noted are these: moDCs generated in the presence of TGF-β1. The procedure:
(§1) CD14^+ cells were isolated from PBMC using the Miltenyi CD14^+ beads. Monocyte-derived DCs (moDCs) were obtained from CD14+ cells cultured in GM-CSF and IL-4 as previously described (55). At day 4 of moDCs differentiation, TGF-β1 (10 ng/ml R&D systems) was added to the moDCs to generate the TGF-β-DCs (or both TGF-β1 and galunisertib). At day 6, 2 days after TGF-1 addition, moDCs were phenotyped (in 3 donors; See Table 2 for antibodies list) and co-cultured with eFluor670 (eBioscience)-labelled U1 at 3:1 U1:DC ratio (5 donors). After 18 hrs of co-culture, cells were stained for p24 intracellularly as described above.
In general terms: Flow cytometry measures light scatter and fluorescence of single cells or particles in a stream.

In test [2] the test system is U1 cells. The test can be described thus: DC-driven HIV reactivation from U1 cells (moDC co-culture). The conditions noted are these: moDCs treated with TGF-β1 10 ng/ml for last 2 days, with or without galunisertib; 18 hrs co-culture. The test is classed as cell-based. The procedure:
as §1

As to “TGF-β1: exogenous TGF-β1 cytokine (R&D systems) added to cultures at 10 ng/ml”, the “decrease of the frequency of p24-gag+ cells in PMA-stimulated cultures” value in the test with ACH-2 cells (ACH-2 cells, PMA 100 ng/ml, TGF-β1 10 ng/ml) is recorded as ~20%. In addition, in the test with ACH-2 cells (ACH-2 cells, TGF-β1 10 ng/ml), the “baseline p24-gag levels in absence of PMA” value is recorded as “smaller but consistent decrease”. Also, the “effect on p24+ cells in X-Vivo 15 medium without FBS” value in the test with ACH-2 cells (control experiments, U1 and ACH-2, no FBS) is recorded as “more pronounced”. Moreover, the “PMA-induced frequency of p24-gag+ cells” value in the test on primary CD4+ T cells is “significantly inhibited”. For the same substance, the “frequency of p24-gag+ cells in unstimulated cultures” value with U1 cells [1] (no PMA, TGF-β1 10 ng/ml or galunisertib 1 μM alone) is on record as “below the baseline level”. In the test with U1 cells [1] (PMA 100 ng/ml, TGF-β1 10 ng/ml, 18 hrs), the “reduction of the PMA driven increase in the frequency of p24-gag+ cells” value is recorded as ~20%. Besides, the “DEC-205 expression on moDCs” value in the test with moDCs is reported as “significantly lower”. Also, in the test with U1 cells [2], the “frequency of p24-gag+ U1 cells in cocultures with TGF-β1-treated DCs versus untreated DCs” value was “significantly less”.
